Reference: patent US20060069132A1, “Azolecarboxamide herbicides” (priority 2004, published 2006)

Columns and labels:
[1] = system: barnyardgrass; experiment: Test A pre-/postemergence herbicide test; format: in vivo, Echinochloa crus-galli
How it was run: (§1)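 Visual injury scores on a 0–100 scale (100 = complete control) taken about ten days post-treatment in greenhouse against untreated controls; dash means no result. Treatments: preemergence soil spray and postemergence spray to runoff on one- to two-leaf plants 2 to 10 cm tall, surfactant-containing formulation.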

[2] = system: large crabgrass; experiment: Test A pre-/postemergence herbicide test; format: in vivo, Digitaria sanguinalis
How it was run: as §1

[3] = system: giant foxtail; experiment: Test A pre-/postemergence herbicide test; format: in vivo, Setaria faberi
How it was run: as §1

[4] = system: morningglory; experiment: Test A pre-/postemergence herbicide test; format: in vivo, Ipomoea spp.
How it was run: as §1

[5] = system: redroot pigweed; experiment: Test A pre-/postemergence herbicide test; format: in vivo, Amaranthus retroflexus
How it was run: as §1

[6] = system: velvetleaf; experiment: Test A pre-/postemergence herbicide test; format: in vivo, Abutilon theophrasti
How it was run: as §1

[7] = system: barnyardgrass; experiment: Test B pre-/postemergence herbicide test; format: in vivo, Echinochloa crus-galli
How it was run: (§2)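 Response was scored visually 13 to 15 days after treatment against untreated greenhouse controls, 0 meaning no effect and 100 complete control. Formulations (solvent mixture plus surfactant) went onto soil after planting, onto foliage of 1- to 4-leaf plants, and onto 2-leaf plants in a flooded paddy set including rice and barnyardgrass.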

[8] = system: Surinam grass; experiment: Test B pre-/postemergence herbicide test; format: in vivo, Urochloa decumbens; conditions: for Surinam Grass plant response rating: postemergence, visual rating
How it was run: (§3)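 Seeds were planted and treated preemergence with compounds formulated in a non-phytotoxic solvent mixture containing surfactant, while plants at the 1- to 4-leaf stage (2 to 18 cm) received postemergence sprays. Flooded paddy plants were grown to the 2-leaf stage. After 13 to 15 days in a greenhouse, injury was visually rated 0–100 against untreated controls.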

[9] = system: cocklebur; experiment: Test B pre-/postemergence herbicide test; format: in vivo, Xanthium strumarium
How it was run: as §2

[10] = system: corn; experiment: Test B pre-/postemergence herbicide test; format: in vivo, Zea mays
How it was run: as §3

[11] = system: large crabgrass; experiment: Test B pre-/postemergence herbicide test; format: in vivo, Digitaria sanguinalis
How it was run: as §3

[12] = system: giant foxtail; experiment: Test B pre-/postemergence herbicide test; format: in vivo, Setaria faberi
How it was run: as §3

[13] = system: lambsquarters; experiment: Test B pre-/postemergence herbicide test; format: in vivo, Chenopodium album; conditions: for Lambsquarters plant response rating: postemergence, visual rating
How it was run: as §3

[14] = system: morningglory; experiment: Test B pre-/postemergence herbicide test; format: in vivo, Ipomoea coccinea; conditions: for Morningglory plant response rating: postemergence, visual rating
How it was run: as §2

[15] = system: pigweed; experiment: Test B pre-/postemergence herbicide test; format: in vivo, Amaranthus retroflexus; conditions: for Pigweed plant response rating: postemergence, visual rating
How it was run: as §3

[16] = system: rice; experiment: Test B pre-/postemergence herbicide test; format: in vivo, Oryza sativa; conditions: preemergence
How it was run: as §3

[17] = system: velvetleaf; experiment: Test B pre-/postemergence herbicide test; format: in vivo, Abutilon theophrasti; conditions: for Velvetleaf plant response rating: postemergence, visual rating
How it was run: as §3

[18] = system: blackgrass; experiment: Test B postemergence herbicide test; format: in vivo, Alopecurus myosuroides; conditions: scale 0 (no effect) to 100 (complete control); for Plant response rating, Blackgrass: Postemergence, 500 g ai/ha, visual rating after 13 to 15 days; for Blackgrass plant response rating: postemergence, 125 g ai/ha, visual rating
How it was run: (§4)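 Visual control ratings, 0–100 versus untreated controls, taken after 13 to 15 days in the greenhouse. Blackgrass received a postemergence spray at the 1- to 4-leaf stage (2–18 cm); ducksalad, umbrella sedge and barnyardgrass were flooded-paddy treated at 2 leaves.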

[19] = system: wheat; experiment: Test B postemergence herbicide test; format: in vivo, Triticum aestivum; parameters: key to Wheat plant response rating: 0 = no effect, 100 = complete control; conditions: scale 0 (no effect) to 100 (complete control); for Plant response rating, Wheat: Postemergence, 500 g ai/ha, visual rating after 13 to 15 days; for Wheat plant response rating: postemergence, 125 g ai/ha, visual rating
How it was run: (§5)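 Plants grow to 1- to 4-leaf stage (2–18 cm) for postemergence spraying, or to 2-leaf stage for the paddy test. Formulated compound is applied. Greenhouse holding lasts 13–15 days. Response is scored visually relative to controls, 0 no effect to 100 complete control; a dash means no result.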

[20] = system: wild oat; experiment: Test B postemergence herbicide test; format: in vivo, Avena fatua; conditions: scale 0 (no effect) to 100 (complete control); for Plant response rating, Oat, Wild: Postemergence, 500 g ai/ha, visual rating after 13 to 15 days; for Oat, Wild plant response rating: postemergence, 125 g ai/ha, visual rating
How it was run: as §5

[21] = system: rice; experiment: Test B flooded paddy test; format: in vivo, Oryza sativa; conditions: 1000 g ai/ha, visual rating, scale 0 to 100 (0 no effect, 100 complete control), 13 to 15 days
How it was run: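 Visual ratings, 0 (no effect) to 100 (complete control), made versus controls after 13–15 d greenhouse. Paddy plants treated at 2-leaf stage; postemergence plants at 1- to 4-leaf stage, 2–18 cm tall.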

[22] = system: small flower umbrella sedge; experiment: Test B flooded paddy test; format: in vivo, Cyperus difformis; conditions: 1000 g ai/ha, visual rating, scale 0 to 100 (0 no effect, 100 complete control), 13 to 15 days
How it was run: as §4

[23] = system: ducksalad; experiment: Test B flooded paddy test; format: in vivo, Heteranthera limosa; conditions: 1000 g ai/ha, visual rating, scale 0 to 100 (0 no effect, 100 complete control), 13 to 15 days
How it was run: as §4

[24] = system: barnyardgrass; experiment: Test B flooded paddy test; format: in vivo, Echinochloa crus-galli; conditions: 1000 g ai/ha, visual rating, scale 0 to 100 (0 no effect, 100 complete control), 13 to 15 days
How it was run: as §4

[25] = Postemergence, 500 g ai/ha, 0 to 100 scale, 0 no effect, 100 complete control
[26] = Postemergence, 2000 g ai/ha, 0 to 100 scale, 0 no effect, 100 complete control
[27] = Preemergence, 500 g ai/ha, visual rating, 0 to 100 scale (0 no effect, 100 complete control)
[28] = Preemergence, 2000 g ai/ha, 0 to 100 scale, 0 no effect, 100 complete control
[29] = Preemergence, 2000 g ai/ha, visual rating, 0 to 100 scale (0 no effect, 100 complete control)
[30] = Postemergence, 500 g ai/ha, visual rating after 13 to 15 days, scale 0 (no effect) to 100 (complete control)
[31] = Preemergence, 500 g ai/ha, scale 0 to 100
[32] = postemergence, 125 g ai/ha, visual rating, scale 0 (no effect) to 100 (complete control)
[33] = preemergence, 125 g ai/ha, 0 to 100 scale, 0 is no effect, 100 is complete control
[34] = 125 g ai/ha, scale 0 (no effect) to 100 (complete control)
[35] = 125 g ai/ha, 0 to 100 scale, 0 is no effect, 100 is complete control
[36] = 500 g ai/ha, visual rating 0-100, 0 no effect, 100 complete control, preemergence

CCn1nc(C(C)(C)C)cc1C(=O)Nc1cccc(C(=O)OCC(F)(F)F)c1 [Compound 83]
Plant response rating, Barnyardgrass [1, 25]: 5
Plant response rating, Barnyardgrass [1, 26]: 20
Barnyardgrass plant response rating [1, 27]: 0
Barnyardgrass plant response rating [1, 28]: 0
Plant response rating, Crabgrass, Large [2, 25]: 30
Plant response rating, Crabgrass, Large [2, 26]: 25
Crabgrass, Large plant response rating [2, 27]: 0
Crabgrass, Large plant response rating [2, 28]: 0
Plant response rating, Foxtail, Giant [3, 25]: 20
Plant response rating, Foxtail, Giant [3, 26]: 20
Foxtail, Giant plant response rating [3, 27]: 0
Foxtail, Giant plant response rating [3, 28]: 0
Plant response rating, Morningglory [4, 25]: 10
Plant response rating, Morningglory [4, 26]: 10
Morningglory plant response rating [4, 27]: 30
Morningglory plant response rating [4, 28]: 10
Plant response rating, Pigweed [5, 25]: 45
Plant response rating, Pigweed [5, 26]: 55
Pigweed plant response rating [5, 27]: 0
Pigweed plant response rating [5, 28]: 0
Plant response rating, Velvetleaf [6, 26]: 20
Velvetleaf plant response rating [6, 27]: 0
Velvetleaf plant response rating [6, 29]: 0
Plant response rating, Barnyardgrass [7, 30]: 50
Barnyardgrass plant response rating [7, 31]: 0
Barnyardgrass plant response rating [7, 32]: 10
Plant response rating, Barnyardgrass [7, 33]: 0
Plant response rating, Surinam Grass [8, 30]: 40
Surinam Grass plant response rating [8, 34]: 20
Plant response rating, Surinam Grass [8, 33]: 0
Plant response rating, Cocklebur [9, 30]: 20
Cocklebur plant response rating [9, 31]: 0
Cocklebur plant response rating [9, 32]: 0
Plant response rating, Corn [10, 30]: 30
Corn plant response rating [10, 31]: 0
Corn plant response rating [10, 32]: 10
Plant response rating, Corn [10, 33]: 0
Plant response rating, Crabgrass, Large [11, 30]: 30
Crabgrass, Large plant response rating [11, 31]: 0
Crabgrass, Large plant response rating [11, 32]: 30
Plant response rating, Crabgrass, Large [11, 33]: 0
Plant response rating, Foxtail, Giant [12, 30]: 10
Foxtail, Giant plant response rating [12, 31]: 0
Foxtail, Giant plant response rating [12, 32]: 0
Plant response rating, Foxtail, Giant [12, 33]: 0
Plant response rating, Lambsquarters [13, 30]: 60
Lambsquarters plant response rating [13, 34]: 0
Plant response rating, Lambsquarters [13, 33]: 0
Plant response rating, Morningglory [14, 30]: 30
Morningglory plant response rating [14, 34]: 0
Plant response rating, Morningglory [14, 33]: 0
Plant response rating, Pigweed [15, 30]: 100
Pigweed plant response rating [15, 34]: 70
Plant response rating, Pigweed [15, 33]: 0
Plant response rating, Rice [16, 35]: 0
Plant response rating, Velvetleaf [17, 30]: 70
Velvetleaf plant response rating [17, 34]: 50
Plant response rating, Velvetleaf [17, 33]: 0
Plant response rating, Blackgrass [18]: 0
Blackgrass plant response rating [18]: 0
Plant response rating, Wheat [19]: 30
Wheat plant response rating [19]: 20
Plant response rating, Oat, Wild [20]: 20
Oat, Wild plant response rating [20]: 10
Rice plant response rating [21]: 10
Sedge, Umbrella plant response rating [22]: 50
Ducksalad plant response rating [23]: 30
Barnyardgrass plant response rating [24]: 10

CCCOC(=O)c1cccc(NC(=O)c2cc(C(C)(C)C)nn2CC)c1C [Compound 90]
Barnyardgrass plant response rating [1, 25]: 20
Plant response rating, Barnyardgrass [1, 26]: 20
Barnyardgrass plant response rating [1, 27]: 20
Barnyardgrass plant response rating [1, 28]: 50
Crabgrass, Large plant response rating [2, 25]: 15
Plant response rating, Crabgrass, Large [2, 26]: 25
Crabgrass, Large plant response rating [2, 27]: 35
Crabgrass, Large plant response rating [2, 28]: 75
Foxtail, Giant plant response rating [3, 25]: 20
Plant response rating, Foxtail, Giant [3, 26]: 20
Foxtail, Giant plant response rating [3, 27]: 25
Foxtail, Giant plant response rating [3, 28]: 60
Morningglory plant response rating [4, 25]: 10
Plant response rating, Morningglory [4, 26]: 10
Morningglory plant response rating [4, 27]: 0
Morningglory plant response rating [4, 28]: 30
Pigweed plant response rating [5, 25]: 20
Plant response rating, Pigweed [5, 26]: 40
Pigweed plant response rating [5, 27]: 25
Pigweed plant response rating [5, 28]: 70
Velvetleaf plant response rating [6, 25]: 10
Plant response rating, Velvetleaf [6, 26]: 30
Velvetleaf plant response rating [6, 27]: 20
Velvetleaf plant response rating [6, 29]: 35
Plant response rating, Barnyardgrass [7, 36]: 20
Plant response rating, Barnyardgrass [7, 30]: 30
Barnyardgrass plant response rating [7, 32]: 0
Plant response rating, Barnyardgrass [7, 33]: 10
Plant response rating, Surinam Grass [8, 36]: 20
Plant response rating, Surinam Grass [8, 30]: 10
Surinam Grass plant response rating [8, 34]: 10
Plant response rating, Surinam Grass [8, 33]: 0
Plant response rating, Cocklebur [9, 36]: 0
Plant response rating, Cocklebur [9, 30]: 60
Cocklebur plant response rating [9, 32]: 10
Plant response rating, Cocklebur [9, 33]: 0
Plant response rating, Corn [10, 36]: 20
Plant response rating, Corn [10, 30]: 10
Corn plant response rating [10, 32]: 10
Plant response rating, Corn [10, 33]: 0
Plant response rating, Crabgrass, Large [11, 36]: 70
Plant response rating, Crabgrass, Large [11, 30]: 10
Crabgrass, Large plant response rating [11, 32]: 10
Plant response rating, Crabgrass, Large [11, 33]: 10
Plant response rating, Foxtail, Giant [12, 36]: 60
Plant response rating, Foxtail, Giant [12, 30]: 10
Foxtail, Giant plant response rating [12, 32]: 10
Plant response rating, Foxtail, Giant [12, 33]: 10
Plant response rating, Lambsquarters [13, 36]: 90
Plant response rating, Lambsquarters [13, 30]: 50
Lambsquarters plant response rating [13, 34]: 50
Plant response rating, Lambsquarters [13, 33]: 0
Plant response rating, Morningglory [14, 36]: 10
Plant response rating, Morningglory [14, 30]: 40
Morningglory plant response rating [14, 34]: 10
Plant response rating, Morningglory [14, 33]: 0
Plant response rating, Pigweed [15, 36]: 80
Plant response rating, Pigweed [15, 30]: 40
Pigweed plant response rating [15, 34]: 30
Plant response rating, Pigweed [15, 33]: 10
Plant response rating, Rice ([16]; 500 g ai/ha, visual rating 0-100, 0 no effect, 100 complete control): 0
Plant response rating, Rice [16, 35]: 0
Plant response rating, Velvetleaf [17, 36]: 20
Plant response rating, Velvetleaf [17, 30]: 30
Velvetleaf plant response rating [17, 34]: 10
Plant response rating, Velvetleaf [17, 33]: 0
Plant response rating, Blackgrass [18]: 10
Blackgrass plant response rating [18]: 0
Plant response rating, Wheat [19]: 10
Wheat plant response rating [19]: 10
Plant response rating, Oat, Wild [20]: 30
Oat, Wild plant response rating [20]: 10
Rice plant response rating [21]: 10
Sedge, Umbrella plant response rating [22]: 50
Ducksalad plant response rating [23]: 30
Barnyardgrass plant response rating [24]: 10
